# Reference: article PMC3930474 (Journal of controlled release : official journal of the …, 2013)
# Legend:
# 4T1 tumors [1] = test: Evans Blue assay; format: in vivo, mouse; conditions: mice
# 4T1 tumors [2] = test: Tumor homing / tumor extravasation of FAM-labeled peptides and conjugates; format: in vivo, mouse; conditions: FAM-labeled peptide i.v., three hours after the injection
# [3] = mouse, in vivo, iv
substance,measurement,setting,value
CRGDK/RGPD/EC (disulfide) [iRGD],duration of the bystander effect after a bolus injection,4T1 tumors [1],less than one hour
same,peptide signal in the tumors,4T1 tumors [2],had weakened
same,plasma half-life,[3],8 min
